As a reminder, the Ki is the equilibrium dissociation constant of an inhibitor or competing ligand from its target. Broadly, the EC50 is the midpoint of the concentration-response curve. By inhibition is commonly meant how much of the control response was suppressed. Higher therefore signals a strong effect.

Structures are written as SMILES.

This is an account of results in ChEMBL document CHEMBL3352611, “Deconstruction of 6,7-dimethoxy-1,2,3,4-tetrahydroisoquinoline moiety to separate P-glycoprotein (P-gp) activity from σ2 receptor affinity in mixed P-gp/σ2 receptor agents” (Eur J Med Chem, 2015).

The target in assay [1] is Sigma non-opioid intracellular receptor 1 (Cavia porcellus, UniProt Q60492). Kind of assay: Displacement of (+)-[3H]-pentazocine from sigma1 recetor in guinea-pig brain membranes without cerebellum by radioligand binding assay. It counts as cell membranes, Membrane.
Sigma non-opioid intracellular receptor 1, sequence (Q60492 whole entry): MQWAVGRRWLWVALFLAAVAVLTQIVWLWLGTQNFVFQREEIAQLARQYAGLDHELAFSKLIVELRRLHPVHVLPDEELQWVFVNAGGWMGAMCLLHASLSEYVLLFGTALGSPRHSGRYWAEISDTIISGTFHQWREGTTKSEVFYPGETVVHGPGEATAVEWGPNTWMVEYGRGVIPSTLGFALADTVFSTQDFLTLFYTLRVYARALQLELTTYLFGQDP
Assay [2] can be described thus: Displacement of [3H]-DTG from sigma2 receptor in rat liver membranes in presence of […] (+)-pentazocine by radioligand binding assay. Type of assay: cell membranes, Membrane. Background: In a radioligand displacement assay an active substance lowers the binding of a labelled ligand.
Assay [3] can be described thus: Selectivity index, ratio of Ki for sigma1 recetor in guinea-pig brain membranes to Ki for sigma2 receptor in rat liver membranes. Type of assay: cell membranes.
Assay [4] concerns the target ATP-dependent translocase ABCB1 (Homo sapiens, UniProt P08183). The experiment in a line: Activity at MDR1 (unknown origin) expressed in MDCK-MDR1 cells by Calcein-AM assay. Type of assay: cell-based.
Assay [5] concerns the target Sigma non-opioid intracellular receptor 1 (Cavia porcellus) (UniProt Q60492). The settings on record: Brain, Membrane, 10 pM.

ATP-dependent translocase ABCB1, sequence (P08183 whole entry): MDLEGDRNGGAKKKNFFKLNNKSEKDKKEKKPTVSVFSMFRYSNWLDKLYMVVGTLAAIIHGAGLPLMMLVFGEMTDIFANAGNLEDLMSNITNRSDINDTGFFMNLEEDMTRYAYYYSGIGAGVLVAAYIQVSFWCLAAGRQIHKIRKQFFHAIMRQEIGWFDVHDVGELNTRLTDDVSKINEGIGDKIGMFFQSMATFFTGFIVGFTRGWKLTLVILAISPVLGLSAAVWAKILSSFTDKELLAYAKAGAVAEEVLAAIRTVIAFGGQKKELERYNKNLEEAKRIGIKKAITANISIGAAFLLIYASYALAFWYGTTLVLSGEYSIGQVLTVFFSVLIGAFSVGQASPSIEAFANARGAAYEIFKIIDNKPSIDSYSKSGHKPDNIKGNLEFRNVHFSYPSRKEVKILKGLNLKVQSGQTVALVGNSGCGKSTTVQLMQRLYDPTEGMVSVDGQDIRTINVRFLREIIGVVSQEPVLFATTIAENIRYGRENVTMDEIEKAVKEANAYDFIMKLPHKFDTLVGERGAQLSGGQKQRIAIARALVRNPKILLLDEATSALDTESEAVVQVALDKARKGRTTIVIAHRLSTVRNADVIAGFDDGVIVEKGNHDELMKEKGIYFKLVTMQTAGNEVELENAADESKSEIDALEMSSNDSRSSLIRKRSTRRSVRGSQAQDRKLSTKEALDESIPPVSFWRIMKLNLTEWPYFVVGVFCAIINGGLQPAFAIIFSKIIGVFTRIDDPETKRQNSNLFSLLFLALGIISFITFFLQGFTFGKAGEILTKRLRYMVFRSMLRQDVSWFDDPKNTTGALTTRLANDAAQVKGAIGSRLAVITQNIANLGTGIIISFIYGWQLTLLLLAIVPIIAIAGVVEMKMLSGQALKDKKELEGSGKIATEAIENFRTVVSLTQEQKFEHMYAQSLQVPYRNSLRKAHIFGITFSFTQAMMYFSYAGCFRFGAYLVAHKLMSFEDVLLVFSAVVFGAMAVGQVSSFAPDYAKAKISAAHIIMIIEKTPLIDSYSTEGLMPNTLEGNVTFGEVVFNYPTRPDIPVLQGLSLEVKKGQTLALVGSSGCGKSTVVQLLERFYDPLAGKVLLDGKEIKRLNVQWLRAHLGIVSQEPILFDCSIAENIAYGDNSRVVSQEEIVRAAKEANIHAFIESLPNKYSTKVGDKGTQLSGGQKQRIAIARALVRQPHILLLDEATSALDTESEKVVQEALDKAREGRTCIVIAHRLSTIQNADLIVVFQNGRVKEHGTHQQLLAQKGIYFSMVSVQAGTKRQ
Sigma non-opioid intracellular receptor 1 (Cavia porcellus), sequence (Q60492 whole entry): as the sequence (Q60492 whole entry) above

With `COc1cccc(CNCCCCc2cn(-c3ccc(F)cc3)c3ccccc23)c1`, the Ki in assay [1] was 544 nM; in assay [2], 227 nM. In addition, in assay [3], the Ratio Ki worked out at 2.4. The EC50 in assay [4] was 2950 nM.
In the same order, the values of `COc1ccc2c(c1OC)CCC2NCCCCc1cn(-c2ccc(F)cc2)c2ccccc12` (racemic) are 215 nM, 115 nM, 1.87 and 870 nM.
Regarding `CCN(CCCCc1cn(-c2ccc(F)cc2)c2ccccc12)Cc1ccc(OC)cc1`, the Ki in assay [2] was found to be 69.8 nM. Further, the EC50 in assay [4] is 4680 nM.
For the compound `COc1ccc(CCNCCCCc2cn(-c3ccc(F)cc3)c3ccccc23)cc1`, the Ki in assay [1] worked out at 431 nM; in assay [2] it was 1400 nM. The Ratio Ki in assay [3] amounted to 0.3. Besides, the EC50 in assay [4] is 2850 nM.
For `COc1ccc(CNCCCCc2cn(-c3ccc(F)cc3)c3ccccc23)cc1OC`, the Ki was 2700 nM in assay [1] and 169 nM in assay [2]. Moreover, the Ratio Ki in assay [3] turned out to be 16. The EC50 in assay [4] is 1040 nM.
Take `CCN(CCCCc1cn(-c2ccc(F)cc2)c2ccccc12)Cc1ccc(OC)c(OC)c1`: the Ki turned out to be 18.9 nM in assay [1] and 97.1 nM in assay [2]. Moreover, the Ratio Ki in assay [3] came to 0.19. For the same compound, the EC50 in assay [4] was 1790 nM. In addition, in assay [5], the inhibition is 85%.
Turning to `CCN(CCCCc1cn(-c2ccc(F)cc2)c2ccccc12)[C@H]1CCc2c1ccc(OC)c2OC`, the Ki in assay [1] amounted to 50.8 nM; in assay [2] it was 19 nM. Further, the Ratio Ki in assay [3] amounted to 2.67. In assay [4], the EC50 is 700 nM.
In the same order, the values of `CCN(CCCCc1cn(-c2ccc(F)cc2)c2ccccc12)Cc1cccc(OC)c1` are 2.44 nM, 91 nM, 0.03 and 4580 nM.
Take `COc1cc2c(cc1OC)CN(CC/C=C1\CCCc3c(OC)cccc31)CC2`: the EC50 in assay [4] is 820 nM.
As for `COc1ccc(CCN(C)CCCCc2cn(-c3ccc(F)cc3)c3ccccc23)cc1OC`, the Ki worked out at 337 nM in assay [1] and 346 nM in assay [2]. Also, the Ratio Ki in assay [3] turned out to be 0.97. The EC50 in assay [4] was 1350 nM.
As to `CCN(CCCCc1cn(-c2ccc(F)cc2)c2ccccc12)C1CCc2c1ccc(OC)c2OC` (racemic), the Ki in assay [1] worked out at 59.2 nM; in assay [2] it was 27.6 nM. In assay [3], the Ratio Ki is 2.14. In assay [4], the 50% effective concentration (EC50) is 960 nM.
For `CCN(CCCCc1cn(-c2ccc(F)cc2)c2ccccc12)[C@@H]1CCc2c1ccc(OC)c2OC`, the values for the Ki in assay [1] and in assay [2] were 126 nM and 35.2 nM, respectively. Besides, the Ratio Ki in assay [3] came to 3.58. In addition, in assay [4], the EC50 was 1740 nM.
For the compound `COc1cc2c(cc1OC)CN(CCCCc1cn(-c3ccc(F)cc3)c3ccccc13)CC2`, the Ki in assay [2] was determined as 5.34 nM. Further, the Ratio Ki in assay [3] was determined as 260. Also, the EC50 in assay [4] is 210 nM.
As to `COc1ccc(CNCCCCc2cn(-c3ccc(F)cc3)c3ccccc23)cc1`, the Ki in assay [1] was 129 nM; in assay [2], 231 nM. Further, the Ratio Ki in assay [3] is 0.56. For the same compound, the EC50 in assay [4] is 7660 nM.
For the compound `COc1ccc(CCN(C)CCCCc2cn(-c3ccc(F)cc3)c3ccccc23)cc1`, the Ki stood at 67.4 nM in assay [1] and 334 nM in assay [2]. Moreover, in assay [3], the Ratio Ki stood at 0.2. In addition, the EC50 in assay [4] is 4490 nM.
In the case of `COc1cccc(CCNCCCCc2cn(-c3ccc(F)cc3)c3ccccc23)c1`, the inhibition constant Ki in assay [1] was found to be 151 nM; in assay [2], 580 nM. In assay [3], the Ratio Ki turned out to be 0.26. In addition, the EC50 in assay [4] was 7200 nM.
The corresponding values for `COc1ccc2c(c1OC)CC[C@H]2NCCCCc1cn(-c2ccc(F)cc2)c2ccccc12` are 175 nM, 252 nM, 0.69 and 3450 nM.
For the compound `COc1ccc2c(c1OC)CC[C@@H]2NCCCCc1cn(-c2ccc(F)cc2)c2ccccc12`, the Ki in assay [1] amounted to 122 nM; in assay [2], 152 nM. Besides, the Ratio Ki in assay [3] came out at 0.8. Moreover, the EC50 in assay [4] was 1340 nM.
The corresponding values for `COc1ccc(CCNCCCCc2cn(-c3ccc(F)cc3)c3ccccc23)cc1OC` are 939 nM, 2100 nM, 0.45 and 1120 nM.
In the same order, the values of `COc1cccc(CCN(C)CCCCc2cn(-c3ccc(F)cc3)c3ccccc23)c1` are 17.5 nM, 111 nM, 0.16 and 6570 nM.
